{"source": "paper PMC10535864", "about": "“Novel Aminopyrimidine-2,4-diones, 2-Thiopyrimidine-4-ones, and 6-Arylpteridines as Dual-Target Inhibitors of BRD4/PLK1: Design, Synthesis, Cytotoxicity, and Computational Studies” (Pharmaceuticals, 2023);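 as to BRD4 IC50 ± SD: in vitro inhibition of recombinant BRD4 BD2 bromodomain binding to a BET bromodomain ligand, read by AlphaLISA proximity signal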", "key": {"[1]": {"assay": "MTT cytotoxicity assay, normal Vero cells", "type": "cell-based", "conditions": "African green monkey, normal Vero cells, MTT", "method": "(§2) Using a six-dose MTT colorimetric assay [44, 66], all new synthetic compounds were tested for cytotoxicity against three cancer cell lines: MDA-MB-231 breast cancer cells, HT-29 colorectal adenocarcinoma cells, and U-937 renal cancer cells. […] These cell lines were supplied by ATCC (American Type Culture Collection) via the Holding company for biological products and vaccines (VACSERA, Cairo, Egypt). The reference control used was Methotrexate.\n1.1.In-vitro cytotoxicity screening\n(§3) Using a six-dose MTT colorimetric assay [44, 66], allnew synthetic compounds were tested for cytotoxicity against three cancer cell lines: MDA-MB-231 breast cancer cells,HT-29 colorectal adenocarcinoma cells, and U-937 renal\n(§4) The cell lines were supplied by ATCC (American Type Culture Collection). The reference control used was Methotrexate. The cytotoxic activities of the examined compounds were quantified by inoculating a 96-well tissue culture plate with 1 X 10^5 cells / mL (100 uL/well) and incubating it at 37°C for 24 hours to develop a complete monolayer sheet. After forming a confluent sheet of cells, the growth medium was decanted from 96-well microtiter plates, and the cell monolayer was washed twice with wash media. Two-fold dilutions of tested samples were made in RPMI medium with 2% serum (maintenance medium), and 0.1 mL of each dilution was tested in different wells, with three wells serving as controls and receiving only maintenance medium. Following that, the plate was incubated at 37°C and examined. Cells were investigated for any physical signs of toxicity, such as partial or complete monolayer loss, rounding, shrinkage, or cell granulation. MTT solution was prepared (5mg/ml in PBS) (BIO BASIC CANADA INC), and 20 uL MTT solution was added to each well. After 5 minutes on a shaking table at150 rpm to thoroughly mix the MTT into the media, it was incubated (37C, 5% CO2) for 4 hours to allow the MTT to be metabolized. Formazan (MTT metabolic product) was resuspended in 200 uL DMSO and shaken at 150 rpm for 5 minutes to thoroughly mix the formazan into the solvent. The optical density was measured at 560 nm, and the background was subtracted at 620 nm. Finally, the IC50 of the test compound in comparison to the reference was calculated using the GraphPad Prism software."}, "[2]": {"test_system": "normal Vero cells", "assay": "MTT cytotoxicity assay, normal Vero cells", "type": "cell-based", "conditions": "Vero, MTT", "method": "as §2\n1.1.In-vitro cytotoxicity screening\nas §3, §4"}, "[3]": {"target": "human recombinant PLK1 (Homo sapiens, UniProt P53350)", "sequence (P53350 whole entry)": "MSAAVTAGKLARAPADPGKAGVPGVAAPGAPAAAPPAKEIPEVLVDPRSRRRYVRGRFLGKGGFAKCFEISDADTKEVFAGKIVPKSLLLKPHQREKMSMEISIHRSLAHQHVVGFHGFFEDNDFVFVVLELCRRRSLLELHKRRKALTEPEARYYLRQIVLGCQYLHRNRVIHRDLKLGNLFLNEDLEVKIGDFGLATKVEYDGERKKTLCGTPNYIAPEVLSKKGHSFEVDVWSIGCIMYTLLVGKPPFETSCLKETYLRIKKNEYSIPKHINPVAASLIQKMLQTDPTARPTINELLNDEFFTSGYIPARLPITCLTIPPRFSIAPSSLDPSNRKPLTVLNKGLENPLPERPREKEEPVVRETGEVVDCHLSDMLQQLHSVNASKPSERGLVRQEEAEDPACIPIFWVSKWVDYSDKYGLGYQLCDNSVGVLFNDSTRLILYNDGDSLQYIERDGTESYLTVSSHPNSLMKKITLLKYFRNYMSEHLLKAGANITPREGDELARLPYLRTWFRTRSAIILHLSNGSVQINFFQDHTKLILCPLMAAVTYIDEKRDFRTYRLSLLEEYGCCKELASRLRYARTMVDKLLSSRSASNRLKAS", "assay": "PLK1 inhibitory activity assay (ADP-Glo Kinase Assay)", "type": "biochemical", "conditions": "for %inh: PLK1 Lab Report", "experimental": "The BRD4 and PLK1 inhibitory assays were carried out in vitro in accordance with the manufacturer’s instructions; BRD4 was assessed using AlphaLISA Bromodomain Assay Protocol, and PLK1 kinase was tested using the ADP-Glo™ Kinase Assay Protocol, as detailed in the Supplementary file. […]\n1.2.2. PLK1 inhibitory activity assay\nThe kinase reaction was performed with active human recombinant PLK1 and combined with the substrate dephosphorylated casein (positive control) using 1 X reaction buffer (40 mM Tris-HCl pH 7.4, 20 mM MgCl2, 0.1 mg/mL BSA, 1 mM DTT) and 20 μM ATP. The reaction was incubated at30°C for 45 minutes. The amount of ATP transferred was calculated using […] reagent from Promega according to the manufacturer’s instruction.\nA plate-reading luminometer isused to measure the luminescence. […]"}, "[4]": {"assay": "MTT cytotoxicity assay, U-937", "type": "cell-based", "conditions": "Homo sapiens, U-937, U937, MTT"}, "[5]": {"test_system": "U-937 renal cancer cells", "assay": "MTT cytotoxicity assay, U-937", "type": "cell-based", "conditions": "MTT; for Toxicity %: U937"}, "[6]": {"test_system": "HT-29 colorectal adenocarcinoma cells", "assay": "MTT cytotoxicity assay, HT-29", "type": "cell-based", "conditions": "MTT", "how_it_was_run": "(§1)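 Cells seeded at 1 X 10^5 cells/mL and grown 24 h at 37°C to a monolayer, then exposed to two-fold compound dilutions in RPMI with 2% serum, six doses. MTT added for 4 h at 37°C, formazan dissolved in DMSO, OD read at 560 nm minus 620 nm background. IC50 from dose-response.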"}, "[7]": {"test_system": "MDA-MB-231 breast cancer cells", "assay": "MTT cytotoxicity assay, MDA-MB-231", "type": "cell-based", "conditions": "MDA-MB-231, MTT", "how_it_was_run": "as §1"}, "[8]": {"target": "T1, BRD4 (BD2) (Homo sapiens, UniProt O60885)", "T1 construct": "BRD4 (BD2) should be thawed on ice; purchased", "assay": "BRD4 inhibitory activity assay (AlphaLISA Bromodomain Assay)", "type": "binding", "conditions": "for %inh: BRD4 Lab Report", "method": "The BRD4 and PLK1 inhibitory assays were carried out in vitro in accordance with the manufacturer’s instructions; BRD4 was assessed using AlphaLISA Bromodomain Assay Protocol [67], and PLK1 kinase was tested using the ADP-Glo™ Kinase Assay Protocol [68], as detailed in the Supplementary file.\nThe BRD4 and PLK1 inhibitory assays were carried out in vitro in accordance with the manufacturer's instructions; BRD4 was assessed using AlphaLISA Bromodomain Assay Protocol [67], and PLK1 kinase was tested using the ADP-Glo™ Kinase Assay Protocol [68],\nThe master mixture was prepared as follows: N wells × (2.5 µL 3x BRD Homogeneous Assay Buffer 1 + 1 µL BET Bromodomain Ligand + 1.5 µL H2O). BRD4 (BD2) should be thawed on ice. Simply, the protein-containing tube was spined to recover the full content of the tube after the firstthaw. Both proteins should be aliquoted into single-use aliquots. Immediately, any remaining undiluted protein should be stored in aliquots at -80°C. BRD4 (BD2) was diluted in 1x BRD Homogeneous Assay Buffer 1 at 4 ng/µL. The diluted proteins were kept on ice until they were used. 5 µl of the master mixture is added to each well designated for the “Positive Control”, “Test Inhibitor”, and “Blank”. For the “Substrate Control”, 2.5 µL 3x BRD Homogeneous Assay Buffer 1 + 1 µL Non-acetylated Ligand 1 + 1.5 µL H2O is added. Each “Test Inhibitor” well received 2.5 µL of inhibitor solution, while the “Positive\nControl”, “Substrate Control”, and “Blank” wells received 2.5 µL of the same solution without inhibitor (inhibitor buffer). Then, the “Blank” well is filled with 2.5 µL of 1x BRD Homogeneous Assay Buffer 1. After that, GSH\n10 µL per well is added, the plate isshaken, and itis incubated at room temperature for 30 minutes. Streptavidin-\n10 µL is added per well and incubated at room temperature for further 15 – 30 minutes [67]. The Alpha counts were read using the EnVision® multimode plate reader with the standard Alpha detection settings."}}, "data": [{"smiles": "Nc1c(/N=C(/CBr)c2ccccc2)c(=O)[nH]c(=O)n1Cc1ccccc1", "note": "[Compound 4, (E)-6-Amino-1-benzyl-5-((2-bromo-1-phenylethylidene)amino)pyrimidine-2,4(1H,3H)-dione]", "values": [{"measurement": "IC50", "setting": "[1]; mean of three independent experiments ± SD, read-out: In Vitro Cytotoxicity against Normal Cells IC50 Value, Vero Cells", "result": "1.73 ± 0.03", "unit": "µM"}, {"measurement": "viability at 0.312 µM", "setting": "[1]; Vero, 0.312 uM", "result": 100, "unit": "%"}, {"measurement": "viability at 0.625 µM", "setting": "[1]; Vero, 0.625 uM", "result": 92.9, "unit": "%"}, {"measurement": "viability at 1.25 µM", "setting": "[1]; Vero, 1.25 uM", "result": 63.6, "unit": "%"}, {"measurement": "viability at 2.5 µM", "setting": "[1]; Vero, 2.5 uM", "result": 23.6, "unit": "%"}, {"measurement": "viability at 5 µM", "setting": "[1]; Vero, 5 uM", "result": 6.63, "unit": "%"}, {"measurement": "viability at 10 µM", "setting": "[1]; Vero, 10 uM", "result": 2.28, "unit": "%"}, {"measurement": "Toxicity %", "setting": "[2]; 0.312 uM", "result": 0, "unit": "%"}, {"measurement": "Toxicity %", "setting": "[2]; 0.625 uM", "result": 7.106, "unit": "%"}, {"measurement": "Toxicity %", "setting": "[2]; 1.25 uM", "result": 36.41, "unit": "%"}, {"measurement": "Toxicity %", "setting": "[2]; 2.5 uM", "result": 76.37, "unit": "%"}, {"measurement": "Toxicity %", "setting": "[2]; 5 uM", "result": 93.37, "unit": "%"}, {"measurement": "Toxicity %", "setting": "[2]; 10 uM", "result": 97.72, "unit": "%"}, {"measurement": "%inh", "setting": "[3]; conc 0.01 (unit not given)", "result": 34, "unit": "%"}, {"measurement": "%inh", "setting": "[3]; conc 0.1 (unit not given)", "result": 46, "unit": "%"}, {"measurement": "%inh", "setting": "[3]; conc 1 (unit not given)", "result": 70, "unit": "%"}, {"measurement": "%inh", "setting": "[3]; conc 10 (unit not given)", "result": 88, "unit": "%"}, {"measurement": "%inh", "setting": "[3]; conc 100 (unit not given)", "result": 95, "unit": "%"}, {"measurement": "IC50", "setting": "[3]; mean of three independent experiments, read-out: PLK1 IC50 ± SD", "result": "0.094 ± 0.004", "unit": "µM"}, {"measurement": "viability at 0.312 µM", "setting": "[4]; 0.312 uM", "result": 97.3, "unit": "%"}, {"measurement": "viability at 0.625 µM", "setting": "[4]; 0.625 uM", "result": 83, "unit": "%"}, {"measurement": "viability at 1.25 µM", "setting": "[4]; 1.25 uM", "result": 24.8, "unit": "%"}, {"measurement": "viability at 2.5 µM", "setting": "[4]; 2.5 uM", "result": 8.01, "unit": "%"}, {"measurement": "viability at 5 µM", "setting": "[4]; 5 uM", "result": 7.46, "unit": "%"}, {"measurement": "viability at 10 µM", "setting": "[4]; 10 uM", "result": 7.9, "unit": "%"}, {"measurement": "IC50", "setting": "[5]; Homo sapiens, U-937, mean of three independent experiments ± SD, read-out: IC50 Value U-937", "result": 0.95, "unit": "µM"}, {"measurement": "Toxicity %", "setting": "[5]; 0.312 uM", "result": 2.669, "unit": "%"}, {"measurement": "Toxicity %", "setting": "[5]; 0.625 uM", "result": 16.99, "unit": "%"}, {"measurement": "Toxicity %", "setting": "[5]; 1.25 uM", "result": 75.22, "unit": "%"}, {"measurement": "Toxicity %", "setting": "[5]; 2.5 uM", "result": 91.99, "unit": "%"}, {"measurement": "Toxicity %", "setting": "[5]; 5 uM", "result": 92.54, "unit": "%"}, {"measurement": "Toxicity %", "setting": "[5]; 10 uM", "result": 92.1, "unit": "%"}, {"measurement": "Toxicity %", "setting": "[6]; HT29, 0.312 uM", "result": 0.1292, "unit": "%"}, {"measurement": "Toxicity %", "setting": "[6]; HT29, 0.625 uM", "result": 48.06, "unit": "%"}, {"measurement": "Toxicity %", "setting": "[6]; HT29, 1.25 uM", "result": 92.12, "unit": "%"}, {"measurement": "Toxicity %", "setting": "[6]; HT29, 2.5 uM", "result": 92.46, "unit": "%"}, {"measurement": "Toxicity %", "setting": "[6]; HT29, 5 uM", "result": 92.76, "unit": "%"}, {"measurement": "Toxicity %", "setting": "[6]; HT29, 10 uM", "result": 93.84, "unit": "%"}, {"measurement": "viability at 0.312 µM", "setting": "[6]; Homo sapiens, HT-29, HT29, 0.312 uM", "result": 99.9, "unit": "%"}, {"measurement": "viability at 0.625 µM", "setting": "[6]; Homo sapiens, HT-29, HT29, 0.625 uM", "result": 51.9, "unit": "%"}, {"measurement": "viability at 1.25 µM", "setting": "[6]; Homo sapiens, HT-29, HT29, 1.25 uM", "result": 7.88, "unit": "%"}, {"measurement": "viability at 2.5 µM", "setting": "[6]; Homo sapiens, HT-29, HT29, 2.5 uM", "result": 7.54, "unit": "%"}, {"measurement": "viability at 5 µM", "setting": "[6]; Homo sapiens, HT-29, HT29, 5 uM", "result": 7.24, "unit": "%"}, {"measurement": "viability at 10 µM", "setting": "[6]; Homo sapiens, HT-29, HT29, 10 uM", "result": 6.16, "unit": "%"}, {"measurement": "IC50", "setting": "[6]; Homo sapiens, HT-29, mean of three independent experiments ± SD, read-out: IC50 Value HT-29", "result": 0.76, "unit": "µM"}, {"measurement": "IC50", "setting": "[7]; Homo sapiens, mean of three independent experiments ± SD, read-out: IC50 Value MDA-MB-231", "result": "0.78 ± 0.01", "unit": "µM"}, {"measurement": "viability at 0.312 µM", "setting": "[7]; Homo sapiens, 0.312 uM", "result": 99.7, "unit": "%"}, {"measurement": "viability at 0.625 µM", "setting": "[7]; Homo sapiens, 0.625 uM", "result": 57.8, "unit": "%"}, {"measurement": "viability at 1.25 µM", "setting": "[7]; Homo sapiens, 1.25 uM", "result": 7.14, "unit": "%"}, {"measurement": "viability at 2.5 µM", "setting": "[7]; Homo sapiens, 2.5 uM", "result": 8.02, "unit": "%"}, {"measurement": "viability at 5 µM", "setting": "[7]; Homo sapiens, 5 uM", "result": 5.1, "unit": "%"}, {"measurement": "viability at 10 µM", "setting": "[7]; Homo sapiens, 10 uM", "result": 4.7, "unit": "%"}, {"measurement": "Toxicity %", "setting": "[7]; 0.312 uM", "result": 0.3103, "unit": "%"}, {"measurement": "Toxicity %", "setting": "[7]; 0.625 uM", "result": 42.24, "unit": "%"}, {"measurement": "Toxicity %", "setting": "[7]; 1.25 uM", "result": 92.86, "unit": "%"}, {"measurement": "Toxicity %", "setting": "[7]; 2.5 uM", "result": 91.98, "unit": "%"}, {"measurement": "Toxicity %", "setting": "[7]; 5 uM", "result": 94.9, "unit": "%"}, {"measurement": "Toxicity %", "setting": "[7]; 10 uM", "result": 95.3, "unit": "%"}, {"measurement": "%inh", "setting": "[8]; conc 0.01 (unit not given)", "result": 41, "unit": "%"}, {"measurement": "%inh", "setting": "[8]; conc 0.1 (unit not given)", "result": 58, "unit": "%"}, {"measurement": "%inh", "setting": "[8]; conc 1 (unit not given)", "result": 75, "unit": "%"}, {"measurement": "%inh", "setting": "[8]; conc 10 (unit not given)", "result": 91, "unit": "%"}, {"measurement": "%inh", "setting": "[8]; conc 100 (unit not given)", "result": 95, "unit": "%"}, {"measurement": "IC50", "setting": "[8]; mean of three independent experiments, read-out: BRD4 IC50 ± SD", "result": "0.029 ± 0.001", "unit": "µM"}]}]}
